Key:
[1] = target: T1, Glucocorticoid receptor (GR) (Homo sapiens, UniProt P04150); assay: Glucocorticoid receptor transactivation, MMTV-bla HeLa CELLSENSOR β-lactamase reporter, agonist mode; type: cell-based; conditions: for % Activation at 100 nM: GR, 5 hours; for greater potency compared to the parent molecule cortisol: GR signaling pathway, relative to cortisol
T1 construct: host or cells: MMTV-bla HeLa CELLSENSOR
T1 sequence (P04150 1-777): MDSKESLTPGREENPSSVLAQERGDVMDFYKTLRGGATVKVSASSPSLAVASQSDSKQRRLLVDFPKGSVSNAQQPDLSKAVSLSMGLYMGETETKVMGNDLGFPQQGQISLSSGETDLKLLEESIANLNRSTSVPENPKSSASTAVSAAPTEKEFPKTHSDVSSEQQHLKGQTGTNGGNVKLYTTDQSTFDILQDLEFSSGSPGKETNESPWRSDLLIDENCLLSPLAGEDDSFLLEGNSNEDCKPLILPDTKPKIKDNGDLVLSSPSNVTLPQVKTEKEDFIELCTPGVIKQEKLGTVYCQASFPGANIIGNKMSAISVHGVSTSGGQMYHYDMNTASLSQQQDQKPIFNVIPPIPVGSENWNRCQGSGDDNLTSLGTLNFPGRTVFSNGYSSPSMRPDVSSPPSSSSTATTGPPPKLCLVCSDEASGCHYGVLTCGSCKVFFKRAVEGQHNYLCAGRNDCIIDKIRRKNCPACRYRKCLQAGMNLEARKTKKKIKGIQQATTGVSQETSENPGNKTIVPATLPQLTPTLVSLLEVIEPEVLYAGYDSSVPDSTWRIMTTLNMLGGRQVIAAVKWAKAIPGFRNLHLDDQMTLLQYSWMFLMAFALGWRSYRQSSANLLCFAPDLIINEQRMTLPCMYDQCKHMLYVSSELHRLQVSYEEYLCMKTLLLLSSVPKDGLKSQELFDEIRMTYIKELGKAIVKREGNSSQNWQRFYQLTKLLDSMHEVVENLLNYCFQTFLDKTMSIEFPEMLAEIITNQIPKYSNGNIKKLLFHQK
Description: Glucocorticoid receptor (GR) activation potency was assessed using a HeLa cell line containing the MMTV-bla reporter (MMTV-bla HeLa CELLSENSOR®, Invitrogen Corp., Carlsbad, Calif.). This cell line was stably transfected with an expression construct containing β-lactamase cDNA under control of the MMTV response element previously identified as a glucocorticoid receptor response element. […] All assays were performed as 10-point dose responses using a half log-fold dilution series starting with a maximum compound concentration of 100 nM. The compounds were incubated for 5 hours. The activation of endogenous GR leads to expression of the reporter β-lactamase which is detected by the conversion of a FRET substrate in a ratiometric assay format. This functional assay allows for measurement of receptor agonism by compounds and can be used to determine compound potency and selectivity. Assay reproducibility was determined by calculating Z′ values for untreated versus maximum stimulation.

[2] = patients, applied locally via eye drops, compared to dexamethasone, prednisolone and fluorometholone; cited from earlier work
[3] = target: T2, fusion protein GAL4(DBD)-MR(LBD) (Homo sapiens, UniProt P08235); assay: Mineralocorticoid receptor transactivation, UAS-bla HEK 293T CELLSENSOR β-lactamase reporter, agonist mode; type: cell-based; conditions: for % Activation at 100 nM: MR, UAS-bla HEK 293T, agonist mode, 16 hours
T2 sequence (P08235 726-964 limits assumed): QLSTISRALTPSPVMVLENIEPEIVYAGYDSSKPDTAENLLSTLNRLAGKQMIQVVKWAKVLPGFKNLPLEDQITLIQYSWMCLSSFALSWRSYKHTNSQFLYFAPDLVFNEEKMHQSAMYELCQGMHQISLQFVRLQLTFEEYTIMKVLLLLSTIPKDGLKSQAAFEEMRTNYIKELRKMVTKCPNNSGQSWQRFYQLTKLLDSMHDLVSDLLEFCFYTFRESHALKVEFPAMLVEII
Description: Mineralocorticoid receptor (MR) activation potency was assessed using a HEK 293T cell line containing the UAS-bla reporter (UAS-bla HEK 293T CELLSENSOR®). This cell line was stably cotransfected with an expression construct containing β-m lactamase cDNA under control of the GAL4 Upstream Activator Sequence (UAS) and another expression construct encoding for the fusion protein GAL4(DBD)-MR(LBD). […] All assays were performed as 10-point dose responses using a half log-fold dilution series starting with a maximum compound concentration of 100 nM. The compounds were incubated for 16 hours. The activation of the fusion protein GAL4(DBD)-MR(LBD) leads to expression of the reporter β-lactamase which is detected by the conversion of a FRET substrate in a ratiometric assay format. This functional assay allows for measurement of receptor agonism by compounds and can be used to determine compound potency and selectivity. Assay reproducibility was determined by calculating Z′ values for untreated versus maximum stimulation.

## C[C@]12CCC(=O)C=C1CC[C@@H]1[C@@H]2[C@@H](O)C[C@@]2(C)[C@H]1CC[C@]2(O)C(=O)CO
[1]; MMTV-bla HeLa, agonist mode
  % Activation at 100 nM: 43%

## C[C@]12CCC(=O)C=C1CC[C@@H]1[C@@H]2[C@@H](O)C[C@@]2(C)[C@H]1CC[C@]2(OC(=O)c1ccccc1)C(=O)CO [cortisol 17-benzoate]
[1]
  greater potency compared to the parent molecule cortisol: about 30 fold

## C[C@]12CCC(=O)C=C1CC[C@@H]1[C@@H]2[C@@H](O)C[C@@]2(C)[C@H]1CC[C@]2(OC(=O)C1CCCC1)C(=O)CO [cortisol 17-cyclopentanoate]
[1]
  greater potency compared to the parent molecule cortisol: about 30 fold

## C[C@]12CCC(=O)C=C1CC[C@@H]1[C@@H]2[C@@H](O)C[C@@]2(C)[C@H]1CC[C@]2(O)C(=O)CO [cortisol]
[2]
  effect on intraocular pressure: minimal effect on intraocular pressure

## C[C@]12CCC(=O)C=C1CC[C@@H]1[C@@H]2[C@@H](O)C[C@@]2(C)[C@H]1CC[C@]2(OC(=O)CCS(=O)(=O)c1ccccc1)C(=O)CO [drawing 14]
[1]; MMTV-bla HeLa, agonist mode
  % Activation at 100 nM: 17%
[1]; MMTV-bla HeLa, agonist mode, 5 hours incubation, max concentration 100 nM, one experiment in duplicate
  EC50: > 100 nM

## C[C@]12CCC(=O)C=C1CC[C@@H]1[C@@H]2[C@@H](O)C[C@@]2(C)[C@H]1CC[C@]2(OC(=O)Cc1ccc(Br)cc1)C(=O)CO [drawing 15]
[1]; MMTV-bla HeLa, agonist mode
  % Activation at 100 nM: 0%

## C[C@]12CCC(=O)C=C1CC[C@@H]1[C@@H]2[C@@H](O)C[C@@]2(C)[C@H]1CC[C@]2(OC(=O)CCS(=O)(=O)c1ccccc1)C(=O)CO [drawing 18]
[3]
  EC50: 3.48 nM
  % Activation at 100 nM: 79%

## C[C@]12CCC(=O)C=C1CC[C@@H]1[C@@H]2[C@@H](O)C[C@@]2(C)[C@H]1CC[C@]2(OC(=O)Cc1ccc(Br)cc1)C(=O)CO [drawing 19]
[3]
  EC50: 5.53 nM
  % Activation at 100 nM: 77%

Reference: patent publication US10493082B2, “4-pregenen-11β-17-21-triol-3,20-dione derivatives” (Allergan, Inc., priority 2011, dated 2019)
